The record followed here is US7205409B2, “Pharmaceutical compositions as inhibitors of dipeptidyl peptidase-IV (DPP-IV)” (Abbott Laboratories, priority 2003, dated 2007).

Data set [1] concerns Insulin resistant female ZDF rats. The experiment in a line: acute oral glucose tolerance test (OGTT). Format: in vivo, rat. The note with it: OGTT 2 gm/kg four hours later. The protocol: Compounds of the present invention are evaluated for the ability to treat diabetes using an acute oral glucose tolerance test (OGTT) as follows: Insulin resistant female ZDF rats, 11 weeks of age, on a normal chow diet, are fasted overnight. A baseline tail snip blood sample is taken to measure glucose levels (Precision PCx glucose meter, Abbott Laboratories, Abbott Park, Ill.) at the beginning of the experiment. Immediately after this baseline sample, compounds of the present invention (or placebo) are dosed orally. Four hours later, a tail snip blood glucose measurement is taken, immediately followed by an oral glucose dose (OGTT, 2 gm/kg). The glucose excursion is followed for 2 hr with samples taken at 10, 20, 30, 60 and 120 min post OGTT. These timed glucose data are used to construct a glucose excursion curve, from which an area under the glucose curve (AUGC) is determined. Data are reported as the baseline-adjusted area under the glucose curve (deltaAUGC) for drug and control groups.

The nature of data set [2]: Chemical Stability Assay (HPLC, phosphate buffer pH 7.4, 37° C.). It counts as physicochemical. The note with it: stability to internal cyclization, read-out: chemical stability half-life (T1/2) (converted). The protocol:
For the determination of chemical stability, compounds of the present invention are assayed using the following protocol:
A solution of each DPP-IV compound was prepared in an appropriate mobile phase. This was injected and analyzed by HPLC to identify the parent drug peak in the chromatograms. Stability solutions were prepared in 50 mM phosphate buffer pH 7.4 adjusted to μ=0.155. Samples were weighed using a Mettler-Toledo microbalance and transferred into a 20 ml glass scintillation vial or a volumetric flask. The phosphate buffer pH 7.4 was added with an EDP Plus 10 ml electronic pipette. The samples were sonicated for approximately 2 minutes and filtered using a PTFE membrane syringe filter. The filtrate was transferred to amber HPLC vials and placed in an autosampler at 37° C. The first sample was immediately injected and counted as the time zero sample. The solution concentration was measured at various timepoints using an appropriate HPLC method. After data acquisition was completed, the chromatograms were processed for each compound. The rate and half-life were determined from a plot of log10 peak area remaining/peak area at zero time vs. exposure time @37° C. using Microsoft® Excel 2000. Rates of reaction and half-lives were calculated using a pseudo-first order kinetic model.

For the compound `N#C[C@@H]1CCCN1C(=O)[C@@H]1CC[C@H](COc2ccc(C(=O)O)c3ccccc23)N1` [Example 54, (2S)-1-{(5R)-5-((4-carboxynaphthalen-1-yloxy)methyl)-L-prolyl}-pyrrolidine-2-carbonitrile], in data set [1] (1.0 mg/kg oral), the “δ AUGC” value was 7,600 mg/mL/dL and the “δ AUGC, change versus control” value is on record as −24%. For the same compound, in data set [1] (3.0 mg/kg oral), the “δ AUGC” value is recorded as 7,300 mg/mL/dL and the “δ AUGC, change versus control” value is −27%.
Consider `N#C[C@@H]1CCCN1C(=O)[C@@H]1CC[C@H](c2ccccc2)N1` [Comparative compound γ], for which the half-life in data set [2] is 12.2 h.
As to `C[C@H]1CC[C@@H](C(=O)N2CCC[C@H]2C#N)N1` [Comparative compound α], in data set [2], the half-life was 5.3 h.
